Key:
[1] = test system: rats subjected to 60% blood loss; test: Rat hemorrhagic shock, 60% blood loss (Example 3); assay type: in vivo
Protocol: Rats infused with ketone bodies were subjected to 60% blood loss for at least 1 hour, followed by return of the shed blood. Endpoint measures of neuroprotection were quantitative analysis of neuronal survival and apoptosis in cortex, hippocampus and cerebellum as well as neurologic function exam scores. The objective was to determine the effectiveness of the D-form of beta-hydroxybutyrate (D-BHB) in conjunction with melatonin in protecting the brain from ischemia and providing protection from reperfusion injury after blood return.
The goal of the following experiments was to maintain 60% blood loss for at least three hours using a minimal amount of fluid in order to maintain viability. Sixty-percent blood loss was calculated by using the equation: Total blood volume=Animal body weight×0.06. A bolus volume of 1 ml ischemia/reperfusion protection composition per kilogram of animal body weight was given to animals after approximately 40% blood loss. Some animals only received a single 1 ml/kg bolus, while other animals received a slow infusion (100 μl/hr) to imitate an intravenous drip of solution after the bolus was given. […]
Once rats were fully anesthesized and stabilized for a 20 min period, blood loss was begun. […] Temperature was monitored with a rectal probe. […] Animal death was recorded when blood pressure, respiration, and precordial movement ceased (see FIG. 9 for a timeline). […]

[2] = test system: hibernating ground squirrels; details: in vivo, ip

SMILES	survival compared with 4 M NaCl ([1]; 60% blood loss, same osmolarity, ambient temperature drift)	survival compared with NaCl, bolus followed by infusion ([1]; bolus then 100 μl/hr infusion, p-value <0.016)	transport into the heart during hibernation [2]
C[C@@H](O)CC(=O)O [D-BHB, D-beta-hydroxybutyrate]	survived longer	lived significantly longer	–
[13CH3][C@@H](O)[13CH2]C(=O)O [^13C-D-BHB, [2,4-^13C]D-beta-hydroxybutyrate]	–	–	efficiently transported into the heart

— US9149450B2, “Ischemia/reperfusion protection compositions and methods of using” (priority 2007, dated 2015)
